Data reported in patent US20250092056A1, “URACIL DERIVATIVES HAVING VIRUS REPLICATION INHIBITORY ACTIVITY AND PHARMACEUTICAL COMPOSITION COMPRISING THE SAME” (Shionogi & Co., Ltd., priority 2022, published 2025).
pEC50, pIC50: −log10 of the molar value. Where two headings read alike, the source gives them in different places.

Experiments:
SARS-CoV-2 = assay: Cytopathic effect (CPE) suppression effect confirmation test using HEK293T/ACE2-TMPRSS2 cells; type: cell-based; conditions: Severe acute respiratory syndrome coronavirus 2, HEK-293T
[1] = target: Recombinant SARS-CoV-2 3CL Protease (Severe acute respiratory syndrome coronavirus 2 (2019-nCoV) (SARS-CoV-2), UniProt P0DTD1); assay: biochemical; type: biochemical; conditions: 50% SARS-CoV-2 3CL protease inhibitory concentration; read-out: IC50
[2] = 72 h, read-out: EC50 (50% SARS-CoV-2 infected cell death inhibitory concentration), class, HEK293T/ACE2-TMPRSS2 cells, CPE suppression, CellTiter-Glo 2.0 after 3 days culture
[3] = 50% SARS-CoV-2 infected cell death inhibitory concentration, HEK293T/ACE2-TMPRSS2 cells, read-out: EC50
[4] = 72 h, HEK293T/ACE2-TMPRSS2 cells, CPE suppression, CellTiter-Glo 2.0 after 3 days culture, read-out: EC50 (50% SARS-CoV-2 infected cell death inhibitory concentration), class
[5] = 72 h, read-out: EC50 (50% SARS-CoV-2 infected cell death inhibitory concentration), HEK293T/ACE2-TMPRSS2 cells, CPE suppression, CellTiter-Glo 2.0 after 3 days culture

Row | SMILES | pEC50 (SARS-CoV-2; [2]) | pIC50 [1] | pEC50 (SARS-CoV-2; [3]) | pEC50 (SARS-CoV-2; [4]) | pEC50 (SARS-CoV-2; [5])
1 | Cc1cc(-n2c(=O)c(-c3ccc(F)c(Cl)c3)c(N3C[C@H]4CCCC[C@H]4C3)n(CC#N)c2=O)cc(=O)[nH]1 [Compound I-172] | > 7.00 | > 8.00 | – | – | –
2 | N#CCn1c(N2CCC(O)(C(F)(F)F)CC2)c(-c2ccc(F)c(Cl)c2)c(=O)n(-c2cnc3cc(F)ccn23)c1=O [Compound I-150] | > 7.00 | > 8.00 | – | – | –
3 | N#CCn1c(N2CC3(C2)CC(F)(F)C3)c(-c2ccc(F)c(Cl)c2)c(=O)n(-c2cnc3cc(Cl)ccn23)c1=O [Compound I-140] | > 7.00 | > 8.00 | – | – | –
4 | C[C@](O)(CCc1c(-c2ccc(F)c(Cl)c2)c(=O)n(-c2cncc(Cl)c2)c(=O)n1CC#N)C(F)F (single isomer, unassigned) [Compound I-392] | – | > 8.00 | > 7.00 | – | –
5 | N#CCn1c(N2CC3(C2)CC(F)(F)C3)c(-c2ccc(F)c(Cl)c2)c(=O)n(-c2cncc(OCF)n2)c1=O [Compound I-353] | – | > 8.00 | > 7.00 | – | –
6 | Cc1cnnc(-n2c(=O)c(Cc3cc(F)c(F)c(F)c3)c(N3C[C@H]4C[C@@H](C3)O4)n(CC#N)c2=O)c1 [Compound I-035] | 6.00 to 7.00 | < 7.00 | – | – | –
7 | Cc1cncc(-n2c(=O)c(-c3ccc(F)c(Cl)c3)c(Oc3cccc4ccccc34)n(CC#N)c2=O)c1 [Compound I-029] | > 7.00 | > 8.00 | – | – | –
8 | CC(C)OC1CN(c2c(-c3ccc(F)c(Cl)c3)c(=O)n(-c3cncc(Cl)c3)c(=O)n2CC#N)C1 [Compound I-084] | > 7.00 | > 8.00 | – | – | –
9 | Cc1cncc(-n2c(=O)c(Cc3cc(F)c(F)c(F)c3)c(N3CC4(CCOC4)C3)n(C(C)C#N)c2=O)c1 (racemic) [Compound I-054] | – | 7.00 to 8.00 | – | > 7.00 | –
10 | Cc1cncc(N2C(=O)N(CC#N)CC3(CCOc4ccc(Cl)cc43)C2=O)c1 (racemic) [Compound I-088] | – | 7.15 | – | – | 7.01
11 | N#CCn1c(N2CCC(F)(F)CC2)c(-c2ccc(F)c(Cl)c2)c(=O)n(-c2cncc(C#N)c2)c1=O [Compound I-403] | – | > 8.00 | > 7.00 | – | –
12 | Cc1cncc(-n2c(=O)c(Cc3cc(F)c(F)c(F)c3)c(N3CCC(CO)CC3)n(CC#N)c2=O)c1 [Compound I-104] | > 7.00 | > 8.00 | – | – | –
13 | N#CCn1c(N2CC(O)(C3CC3)C2)c(-c2ccc(F)c(Cl)c2)c(=O)n(-c2cncc(C(F)F)n2)c1=O [Compound I-381] | – | > 8.00 | > 7.00 | – | –
14 | N#CCn1c(N2CC3(CCCO3)C2)c(-c2ccc(F)c(Cl)c2)c(=O)n(-c2cnc3cc(F)ccn23)c1=O [Compound I-152] | > 7.00 | > 8.00 | – | – | –
15 | N#CCn1c(N2CC(OC(F)F)C2)c(-c2ccc(F)c(C#N)c2)c(=O)n(-c2cncc(Cl)c2)c1=O [Compound I-375] | – | > 8.00 | > 7.00 | – | –
16 | Cc1cncc(-n2c(=O)c(-c3ccc(F)c(Cl)c3)c(Oc3cccc4[nH]ccc34)n(CC#N)c2=O)c1 [Compound I-028] | > 7.00 | > 8.00 | – | – | –
17 | Cn1c(-n2c(=O)c(Cc3cc(F)c(F)c(F)c3)c(N3Cc4ccccc4C3)n(CC#N)c2=O)cc(=O)n1C [Compound I-157] | 5.30 to 6.00 | < 7.00 | – | – | –
18 | COc1ccc(-c2c(-c3ccc(F)c(Cl)c3)c(=O)n(-c3cncc(C)c3)c(=O)n2CC#N)cc1 [Compound I-271] | – | > 8.00 | > 7.00 | – | –
19 | Cc1cncc(-n2c(=O)c(Cc3cc(F)c(F)c(F)c3)c(N3CCC(C(F)(F)F)CC3)n(CC#N)c2=O)c1 [Compound I-119] | > 7.00 | > 8.00 | – | – | –
20 | N#CCn1c(N2CC(C(F)(F)F)C2)c(-c2ccc(F)c(C(F)F)c2)c(=O)n(-c2cncc(Cl)c2)c1=O [Compound I-341] | – | > 8.00 | > 7.00 | – | –
21 | Cc1cncc(-n2c(=O)c(-c3ccc(F)c(Cl)c3)c(N3CC4(C3)CC(F)(F)C4)n(CC#N)c2=O)n1 [Compound I-198] | > 7.00 | > 8.00 | – | – | –
22 | COc1cncc(-n2c(=O)c(-c3ccc(F)c(Cl)c3)c(N3CC4(C3)CC(F)(F)C4)n(CC#N)c2=O)n1 [Compound I-260] | – | > 8.00 | > 7.00 | – | –
23 | N#CCn1c(N2CCC(F)(C#N)CC2)c(-c2ccc(F)c(Cl)c2)c(=O)n(-c2cncc(Cl)c2)c1=O [Compound I-305] | – | > 8.00 | > 7.00 | – | –
24 | N#CCn1c(N2CC3(C2)CC(F)(F)C3)c(-c2cc(F)c(F)c(C#N)c2)c(=O)n(-c2cncc(Cl)c2)c1=O [Compound I-366] | – | > 8.00 | > 7.00 | – | –
25 | N#CCn1c(N2CC3CNC(=O)C3C2)c(-c2ccc(F)c(Cl)c2)c(=O)n(-c2cncc(Cl)c2)c1=O (racemic) [Compound I-062] | > 7.00 | > 8.00 | – | – | –
26 | N#CCn1c(N2Cc3ccccc3C2)c(Sc2cc(F)c(F)c(F)c2)c(=O)n(-c2cncc(Cl)c2)c1=O [Compound I-167] | – | 7.31 | – | – | 7.58

Row | SMILES | pEC50 (SARS-CoV-2; [2]) | pIC50 [1] | pEC50 (SARS-CoV-2; [3]) | pEC50 (SARS-CoV-2; [4]) | pEC50 (SARS-CoV-2; [5])
27 | N#CCn1c(N2CC(O)(c3ncccn3)C2)c(-c2ccc(F)c(Cl)c2)c(=O)n(-c2cncc(OCF)c2)c1=O [Compound I-346] | – | > 8.00 | > 7.00 | – | –
28 | N#CCn1c(N2CC3(CCOC3)C2)c(CC2CC(F)(F)C2)c(=O)n(-c2cncc(Cl)c2)c1=O [Compound I-364] | – | < 7.00 | 6.00 to 7.00 | – | –
29 | N#CCn1c(N2CCC(F)(F)CC2)c(-c2cc(F)c(F)c(Cl)c2)c(=O)n(-c2cncc(Cl)c2)c1=O [Compound I-327] | – | > 8.00 | > 7.00 | – | –
30 | N#CCn1c(N2CC3(CCOC3)C2)c(Cc2cc(F)c(F)c(F)c2)c(=O)n(-c2cnc3ccc(F)cn23)c1=O [Compound I-129] | – | 7.00 to 8.00 | – | 6.00 to 7.00 | –
31 | N#CCn1c(CCC2(O)CCC2)c(-c2ccc(F)c(C(F)F)c2)c(=O)n(-c2cncc(Cl)c2)c1=O [Compound I-425] | – | > 8.00 | > 7.00 | – | –
32 | Cc1cncc(-n2c(=O)c(Cc3cc(F)c(F)c(F)c3)c(N3CCC(C(N)=O)CC3)n(CC#N)c2=O)c1 [Compound I-112] | 6.00 to 7.00 | > 8.00 | – | – | –
33 | N#CCn1c(N2CCC(C(F)(F)F)CC2)c(-c2ccc(F)c(Cl)c2)c(=O)n(-c2cnc3cc(F)ccn23)c1=O [Compound I-153] | > 7.00 | > 8.00 | – | – | –
34 | N#CCn1c(N2CC3(CCOCC3)C2)c(-c2ccc(F)c(Cl)c2)c(=O)n(-c2cncc(Cl)c2)c1=O [Compound I-292] | – | > 8.00 | > 7.00 | – | –
35 | CCN1CCN(c2c(-c3ccc(F)c(Cl)c3)c(=O)n(-c3cncc(C)c3)c(=O)n2CC#N)CC1=O [Compound I-224] | – | > 8.00 | > 7.00 | – | –
36 | Cc1cncc(-n2c(=O)c(-c3ccc(F)c(Cl)c3)c(-c3ccc(C(N)=O)cc3)n(CC#N)c2=O)c1 [Compound I-273] | – | > 8.00 | > 7.00 | – | –
37 | CC(=O)Cn1c(C)c(-c2ccc(F)c(Cl)c2)c(=O)n(-c2cncc(Cl)c2)c1=O [Compound I-442] | – | 7.00 to 8.00 | > 7.00 | – | –
38 | N#CCn1c(N2CCC(F)(F)C2)c(-c2ccc(F)c(Cl)c2)c(=O)n(-c2cncc(Cl)c2)c1=O [Compound I-148] | > 7.00 | > 8.00 | – | – | –
39 | N#CCn1c(N2CC3(C2)CC(F)(F)C3)c(-c2ccc(F)c(C(F)F)c2)c(=O)n(-c2cncc(Cl)c2)c1=O [Compound I-339] | – | > 8.00 | > 7.00 | – | –
40 | Cc1cc(-n2c(=O)c(-c3cc(Cl)cc(C(F)(F)F)c3)c(N3CC4(C3)CC(F)(F)C4)n(CC#N)c2=O)cc(=O)[nH]1 [Compound I-201] | 6.00 to 7.00 | > 8.00 | – | – | –
41 | CC(C)N1CCN(c2c(-c3ccc(F)c(Cl)c3)c(=O)n(-c3cncc(Cl)c3)c(=O)n2CC#N)CC1=O [Compound I-223] | – | > 8.00 | > 7.00 | – | –
42 | N#CCn1c(-c2ccc(F)nc2)c(-c2ccc(F)c(Cl)c2)c(=O)n(-c2cncc(Cl)c2)c1=O [Compound I-385] | – | > 8.00 | > 7.00 | – | –
43 | N#CCn1c(N2C[C@@H]3C[C@H]2CO3)c(-c2ccc(F)c(C#N)c2)c(=O)n(-c2cncc(Cl)c2)c1=O [Compound I-376] | – | > 8.00 | > 7.00 | – | –
44 | C[C@@]1(O)CCN(c2c(-c3ccc(F)c(Cl)c3)c(=O)n(-c3cncc(Cl)c3)c(=O)n2CC#N)C1 (single isomer, unassigned) [Compound I-294] | – | > 8.00 | > 7.00 | – | –
45 | N#CCn1c(N2CC3(C2)CC(F)(F)C3)c(-c2ccc(F)c(Cl)c2)c(=O)n(-c2cc(C(F)(F)F)cnn2)c1=O [Compound I-229] | – | > 8.00 | > 7.00 | – | –
46 | N#CCn1c(N2CC(O)(c3nccs3)C2)c(-c2ccc(F)c(Cl)c2)c(=O)n(-c2cncc(Cl)c2)c1=O [Compound I-256] | – | > 8.00 | > 7.00 | – | –
47 | N#CCn1c(N2CC3(CC3)C2)c(-c2ccc(F)c(Cl)c2)c(=O)n(-c2cnc3cc(Cl)ccn23)c1=O [Compound I-134] | > 7.00 | > 8.00 | – | – | –
48 | N#CCn1c(N2CC(O)(C(F)(F)F)C2)c(-c2ccc(F)c(Cl)c2)c(=O)n(-c2cncc(Cl)c2)c1=O [Compound I-142] | – | 9.34 | – | – | 8.47
49 | N#CCn1c(N2CC(O)(C(F)(F)F)C2)c(-c2cc(F)c(F)c(C#N)c2)c(=O)n(-c2cncc(Cl)c2)c1=O [Compound I-367] | – | > 8.00 | > 7.00 | – | –
50 | N#CCn1c(N2CC3(CCCO3)C2)c(-c2ccc(F)c(Cl)c2)c(=O)n(-c2cncc(Cl)c2)c1=O [Compound I-021] | > 7.00 | > 8.00 | – | – | –
51 | N#CCn1c(N2CC[C@@](O)(C3CC3)C2)c(-c2ccc(F)c(Cl)c2)c(=O)n(-c2cncc(Cl)c2)c1=O (single isomer, unassigned) [Compound I-356] | – | > 8.00 | > 7.00 | – | –
